In PubChem BioAssay AID1259407 (Chemical Carcinogenesis Research Information System (CCRIS), 2018):
Activity calls are given as the source filed them. No rule for the calls is given here.

Tested on: CCRIS mutagenicity, Ames/micronucleus/aberration tests
Assay: CCRIS mutagenicity studies
[1] = Test System: AMES SALMONELLA TYPHIMURIUM, Strain/Indicator: TA98, Metabolic Activation: NONE, Method: PREINCUBATION
[2] = Test System: AMES SALMONELLA TYPHIMURIUM, Strain/Indicator: TA100, Metabolic Activation: NONE, Method: PREINCUBATION
[3] = Test System: AMES SALMONELLA TYPHIMURIUM, Strain/Indicator: TA1535, Metabolic Activation: NONE, Method: PREINCUBATION
[4] = Test System: AMES SALMONELLA TYPHIMURIUM, Strain/Indicator: TA1537, Metabolic Activation: NONE, Method: PREINCUBATION
[5] = Test System: AMES SALMONELLA TYPHIMURIUM, Strain/Indicator: TA98, Metabolic Activation: HAMSTER, LIVER, S-9, AROCLOR 1254 (10%), Method: PREINCUBATION
[6] = Test System: AMES SALMONELLA TYPHIMURIUM, Strain/Indicator: TA98, Metabolic Activation: RAT, LIVER, S-9, AROCLOR 1254 (10%), Method: PREINCUBATION
[7] = Test System: AMES SALMONELLA TYPHIMURIUM, Strain/Indicator: TA100, Metabolic Activation: HAMSTER, LIVER, S-9, AROCLOR 1254 (10%), Method: PREINCUBATION
[8] = Test System: AMES SALMONELLA TYPHIMURIUM, Strain/Indicator: TA100, Metabolic Activation: RAT, LIVER, S-9, AROCLOR 1254 (10%), Method: PREINCUBATION
[9] = Test System: AMES SALMONELLA TYPHIMURIUM, Strain/Indicator: TA1535, Metabolic Activation: HAMSTER, LIVER, S-9, AROCLOR 1254 (10%), Method: PREINCUBATION
[10] = Test System: AMES SALMONELLA TYPHIMURIUM, Strain/Indicator: TA98, Metabolic Activation: NONE, Method: STANDARD PLATE
[11] = Test System: AMES SALMONELLA TYPHIMURIUM, Strain/Indicator: TA98, Metabolic Activation: RAT, LIVER, S-9, Method: STANDARD PLATE
[12] = Test System: AMES SALMONELLA TYPHIMURIUM, Strain/Indicator: TA100, Metabolic Activation: NONE, Method: STANDARD PLATE
[13] = Test System: AMES SALMONELLA TYPHIMURIUM, Strain/Indicator: TA100, Metabolic Activation: RAT, LIVER, S-9, Method: STANDARD PLATE

Compound: O=C(O)C(F)(F)C(F)(F)C(F)(F)C(F)(F)C(F)(F)C(F)(F)C(F)(F)C(F)(F)C(F)(F)F
- mutagenic call [1]: inactive; negative
- mutagenic call (Test System: AMES SALMONELLA TYPHIMURIUM, Strain/Indicator: TA98, Metabolic Activation: RAT, LIVER, S-9, Method: PREINCUBATION): inactive; negative
- mutagenic call [2]: inactive; negative
- mutagenic call (Test System: AMES SALMONELLA TYPHIMURIUM, Strain/Indicator: TA100, Metabolic Activation: RAT, LIVER, S-9, Method: PREINCUBATION): inactive; negative
- mutagenic call [3]: inactive; negative
- mutagenic call (Test System: AMES SALMONELLA TYPHIMURIUM, Strain/Indicator: TA1535, Metabolic Activation: RAT, LIVER, S-9, Method: PREINCUBATION): inactive; negative
- mutagenic call [4]: inactive; negative
- mutagenic call (Test System: AMES SALMONELLA TYPHIMURIUM, Strain/Indicator: TA1537, Metabolic Activation: RAT, LIVER, S-9, Method: PREINCUBATION): inactive; negative
- mutagenic call (Test System: AMES SALMONELLA TYPHIMURIUM, Strain/Indicator: TA1538, Metabolic Activation: NONE, Method: PREINCUBATION): inactive; negative
- mutagenic call (Test System: AMES SALMONELLA TYPHIMURIUM, Strain/Indicator: TA1538, Metabolic Activation: RAT, LIVER, S=9, Method: PREINCUBATION): inactive; negative
- mutagenic call (Test System: CHINESE HAMSTER OVARY, Strain/Indicator: CHO-K1-BH4 (HGPRT), Metabolic Activation: NONE, Method: STANDARD PLATE): inactive; negative
- mutagenic call (Test System: CHINESE HAMSTER OVARY, Strain/Indicator: CHO-K1-BH4 (HGPRT), Metabolic Activation: RAT, LIVER, S-9, Method: STANDARD PLATE): inactive; negative
- mutagenic call (Test System: UDS RODENT HEPATOCYTES, Strain/Indicator: THY INCORP (NON-S-PHASE), Metabolic Activation: NONE, Method: AUTORADIOGRAPHY): inactive; negative

Compound: CN(C)CCN(Cc1ccsc1)c1ccccn1
- mutagenic call [5]: inactive; negative
- mutagenic call [1]: inactive; negative
- mutagenic call [6]: inactive; negative
- mutagenic call [7]: inactive; negative
- mutagenic call [2]: inactive; negative
- mutagenic call [8]: inactive; negative
- mutagenic call [9]: inactive; negative
- mutagenic call [3]: inactive; negative
- mutagenic call (Test System: AMES SALMONELLA TYPHIMURIUM, Strain/Indicator: TA1535, Metabolic Activation: RAT, LIVER, S-9, AROCLOR 1254 (10%), Method: PREINCUBATION): inactive; negative
- mutagenic call (Test System: AMES SALMONELLA TYPHIMURIUM, Strain/Indicator: TA1537, Metabolic Activation: HAMSTER, LIVER, S-9, AROCLOR 1254 (10%), Method: PREINCUBATION): inactive; negative
- mutagenic call [4]: inactive; negative
- mutagenic call (Test System: AMES SALMONELLA TYPHIMURIUM, Strain/Indicator: TA1537, Metabolic Activation: RAT, LIVER, S-9, AROCLOR 1254 (10%), Method: PREINCUBATION): inactive; negative

Compound: Cc1ccc(N=Nc2c(O)c(C(=O)O)cc3ccccc23)cc1S(=O)(=O)O
- mutagenic call [10]: inactive; negative
- mutagenic call [11]: inactive; negative
- mutagenic call [12]: inactive; negative
- mutagenic call [13]: inactive; negative

Compound: N#C/C=C/C#N
- mutagenic call (End Point: IN VITRO CHROMOSOMAL ABERRATIONS, Test System: CHO-LB CELLS, Metabolic Activation: NONE): active; positive
- mutagenic call (End Point: IN VITRO CHROMOSOMAL ABERRATIONS, Test System: CHO-LB CELLS, Metabolic Activation: RAT, LIVER, S-9, AROCLOR 1254): inactive; negative
- mutagenic call (Test System: AMES SALMONELLA TYPHIMURIUM, Strain/Indicator: TA97, Metabolic Activation: HAMSTER, LIVER, S-9, AROCLOR 1254 (10%), Method: PREINCUBATION): inactive; negative
- mutagenic call (Test System: AMES SALMONELLA TYPHIMURIUM, Strain/Indicator: TA97, Metabolic Activation: HAMSTER, LIVER, S-9, AROCLOR 1254 (30%), Method: PREINCUBATION): inactive; negative
- mutagenic call (Test System: AMES SALMONELLA TYPHIMURIUM, Strain/Indicator: TA97, Metabolic Activation: NONE, Method: PREINCUBATION): inactive; negative
- mutagenic call (Test System: AMES SALMONELLA TYPHIMURIUM, Strain/Indicator: TA97, Metabolic Activation: RAT, LIVER, S-9, AROCLOR 1254 (10 OR 30%), Method: PREINCUBATION): inactive; negative
- mutagenic call [5]: inactive; negative
- mutagenic call (Test System: AMES SALMONELLA TYPHIMURIUM, Strain/Indicator: TA98, Metabolic Activation: HAMSTER, LIVER, S-9, AROCLOR 1254 (30%), Method: PREINCUBATION): inactive; negative
- mutagenic call [1]: inactive; negative
- mutagenic call [6]: inactive; negative
- mutagenic call (Test System: AMES SALMONELLA TYPHIMURIUM, Strain/Indicator: TA98, Metabolic Activation: RAT, LIVER, S-9, AROCLOR 1254 (30%), Method: PREINCUBATION): inactive; negative
- mutagenic call (Test System: AMES SALMONELLA TYPHIMURIUM, Strain/Indicator: TA98, Metabolic Activation: RAT, LIVER, S-9, FUMARONITRILE (AUTOINDUCTION), Method: PREINCUBATION): inactive; negative
- mutagenic call (Test System: AMES SALMONELLA TYPHIMURIUM, Strain/Indicator: TA98, Metabolic Activation: RAT, LIVER, S-9, PHENOBARBITAL, Method: PREINCUBATION): inactive; negative
- mutagenic call [7]: inactive; negative
- mutagenic call (Test System: AMES SALMONELLA TYPHIMURIUM, Strain/Indicator: TA100, Metabolic Activation: HAMSTER, LIVER, S-9, AROCLOR 1254 (30%), Method: PREINCUBATION): inactive; negative
- mutagenic call [2]: inactive; negative
- mutagenic call [8]: inactive; negative
- mutagenic call (Test System: AMES SALMONELLA TYPHIMURIUM, Strain/Indicator: TA100, Metabolic Activation: RAT, LIVER, S-9, AROCLOR 1254 (30%), Method: PREINCUBATION): inactive; negative
- mutagenic call (Test System: AMES SALMONELLA TYPHIMURIUM, Strain/Indicator: TA100, Metabolic Activation: RAT, LIVER, S-9, FUMARONITRILE (AUTOINDUCTION), Method: PREINCUBATION): inactive; negative
- mutagenic call (Test System: AMES SALMONELLA TYPHIMURIUM, Strain/Indicator: TA100, Metabolic Activation: RAT, LIVER, S-9, PHENOBARBITAL, Method: PREINCUBATION): inactive; negative
- mutagenic call [9]: inactive; negative
- mutagenic call (Test System: AMES SALMONELLA TYPHIMURIUM, Strain/Indicator: TA1535, Metabolic Activation: HAMSTER, LIVER, S-9, AROCLOR 1254 (30%), Method: PREINCUBATION): inactive; negative
- mutagenic call [3]: inactive; negative
- mutagenic call (Test System: AMES SALMONELLA TYPHIMURIUM, Strain/Indicator: TA1535, Metabolic Activation: RAT, LIVER, S-9, AROCLOR 1254 (10 OR 30%), Method: PREINCUBATION): inactive; negative

Compound: C=C1C[C@@]23CC[C@H]4[C@@](C)(CCC[C@@]4(C)C(=O)O)[C@@H]2CC[C@]1(O[C@@H]1O[C@H](CO)[C@@H](O)[C@H](O)[C@H]1O[C@@H]1O[C@H](CO)[C@@H](O)[C@H](O)[C@H]1O)C3
- mutagenic call (Test System: AMES SALMONELLA TYPHIMURIUM, Strain/Indicator: TM677, Metabolic Activation: RAT, LIVER, S-9, AROCLOR 1254, Method: PREINCUBATION): inactive; negative

Compound: C=CC(O)CO (stereo unspecified)
- mutagenic call (Test System: Mouse splenic T lymphocytes in vivo, Strain/Indicator: B6C3F1 females (HPRT)/6-Thioguanine, Metabolic Activation: None, Method: Inhalation at 0, 6, 18, 36 ppm 6 hr/day for 4 wks (sacrifice 2-8 wks post exposure)): active; positive (especially at 5.5-6 wk after last exposure)
- mutagenic call (Test System: Mouse splenic T lymphocytes in vivo, Strain/Indicator: B6C3F1 males (HPRT)/6-Thioguanine, Metabolic Activation: None, Method: Inhalation at 0, 6, 18, 36 ppm 6 hr/day for 4 wks (sacrifice 2-8 wks post exposure)): active; positive (especially at 5.5-6 wk after last exposure)
- mutagenic call (Test System: Rat splenic T lymphocytes in vivo, Strain/Indicator: F344 females (HPRT)/6-Thioguanine, Metabolic Activation: None, Method: Inhalation at 0, 36 ppm 6 hr/day for 4 wks (sacrifice 2-8 wks post exposure)): active; positive (at 5-6 wks)

Compound: CCOP(=O)(OCC)Oc1nc(Cl)c(Cl)cc1Cl
- mutagenic call [10]: inactive; negative
- mutagenic call [11]: inactive; negative
- mutagenic call [12]: inactive; negative
- mutagenic call [13]: inactive; negative
